The results in this text go back to patent US12252488B2 (Nimbus Saturn, Inc., priority 2021, dated 2025).

T1 sequence (Q92918 whole entry): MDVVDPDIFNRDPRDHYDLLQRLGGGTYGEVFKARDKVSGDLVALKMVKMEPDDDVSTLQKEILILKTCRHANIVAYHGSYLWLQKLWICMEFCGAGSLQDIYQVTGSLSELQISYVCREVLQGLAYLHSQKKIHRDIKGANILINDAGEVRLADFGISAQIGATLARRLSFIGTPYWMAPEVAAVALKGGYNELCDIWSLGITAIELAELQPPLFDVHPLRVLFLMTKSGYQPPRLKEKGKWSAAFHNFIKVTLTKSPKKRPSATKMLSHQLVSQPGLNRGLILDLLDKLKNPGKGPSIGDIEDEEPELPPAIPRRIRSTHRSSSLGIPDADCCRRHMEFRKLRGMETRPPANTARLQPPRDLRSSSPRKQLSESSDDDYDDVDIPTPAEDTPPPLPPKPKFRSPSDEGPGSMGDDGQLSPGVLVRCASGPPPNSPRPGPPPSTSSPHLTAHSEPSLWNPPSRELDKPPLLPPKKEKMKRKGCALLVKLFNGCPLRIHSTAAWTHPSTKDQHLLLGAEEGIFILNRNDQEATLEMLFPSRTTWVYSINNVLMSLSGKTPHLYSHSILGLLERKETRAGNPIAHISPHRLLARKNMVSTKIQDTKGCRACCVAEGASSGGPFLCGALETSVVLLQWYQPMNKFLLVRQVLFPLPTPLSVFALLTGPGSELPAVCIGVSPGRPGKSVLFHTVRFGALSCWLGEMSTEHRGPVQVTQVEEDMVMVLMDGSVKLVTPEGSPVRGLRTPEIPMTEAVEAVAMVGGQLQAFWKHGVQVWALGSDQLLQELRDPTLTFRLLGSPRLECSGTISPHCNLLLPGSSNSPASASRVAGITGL

This assay has as its target T1, HPK1 (Homo sapiens, UniProt Q92918).
T1 construct: purchased Invitrogen
In words: HPK1 biochemical enzyme assay (microfluidic mobility shift assay). Conditions: 1000 uM (1 mM) ATP; Caliper mobility shift; 1.5 nM HPK1; 30 min preincubation; read-out: HPK1 1000UMATP caliper IC50. How it is done:
Example 33. HPK1 Biochemical Enzyme Assay
HPK1 biochemical enzyme assay: HPK1 enzyme inhibition was measured using a microfluidic mobility shift assay. Reactions were performed in a 384-well plate, containing 1.5 nM HPK1 (Invitrogen), in assay buffer (Carna Biosciences; pH 7.4). Test compounds were titrated in ten point curves (top final assay concentration 3 μM), and preincubated with enzyme/substrate mix for 30 min prior to initiation of the reaction by addition of ATP (1 mM final concentration) and substrate (1 μM final concentration; Carna Biosciences) diluted in assay buffer supplemented by MgCl2 (final assay concentration of 5 mM). Following 60 min incubation at RT, the reaction was terminated by addition of 60 μl/well termination buffer (Carna Biosciences) and signal determination using a Caliper EZ Reader (Perkin Elmer, UK).
The compound numbers correspond to the compound numbers in Table 1. Compounds having an activity designated as “A” provided an IC50≤100 nM; compounds having an activity designated as “B” provided an IC50>100 nM and ≤1,000 nM; compounds having an activity designated as “C” provided an IC50>1,000 nM.
What is called IC50 is the concentration needed to halve the response being measured. With `O=C(Nc1ccc(-c2cc(Nc3ccc(N4CCC(O)CC4)cn3)c3c(=O)[nH]ccc3n2)c(F)c1)[C@@H]1C[C@H]2CC[C@@H]1C2` (racemic) [I-266, (1R,2R,4S)-N-[3-fluoro-4-[4-[[5-(4-hydroxy-1-piperidyl)-2-pyridyl]amino]-5-oxo-6H-1,6-naphthyridin-2-yl]phenyl] norbornane-2-carboxamide], the IC50 is at most 100 nM.
For `O=C(Nc1ccc(-c2cc(Nc3ccc(N4CCC(O)CC4)cn3)c3c(=O)[nH]ccc3n2)c(F)c1)[C@H]1C[C@H]2CC[C@@H]1C2` (single isomer, unassigned) [I-261] the value was at most 100 nM; for `O=C(Nc1ccc(-c2cc(Nc3ccc(C4CCOC4)cn3)c3c(=O)[nH]ccc3n2)c(F)c1)C1CCCCC1` (single isomer, unassigned) [I-267, N-[3-fluoro-4-[5-oxo-4-[(5-THF-3-yl-2-pyridyl)amino]-6H-1,6-naphthyridin-2-yl]phenyl] cyclohexane carboxamide], at most 100 nM; for `O=C(Nc1ccc(-c2cc(Nc3ccc(N4CCC(O)CC4)cn3)c3c(=O)[nH]ccc3n2)c(F)c1)[C@@H]1C[C@H]2CC[C@@H]1C2` (single isomer, unassigned) [I-269], 100 to 1000 nM.
In the case of `CC(O)(c1ccc(F)c(-c2cc(Nc3ccc(N4CCC(O)CC4)cn3)c3c(=O)[nH]ccc3n2)c1)C(F)(F)F` (single isomer, unassigned) [I-273, 2-(2-fluoro-5-(1,1,1-tifluoro-2-hydroxy-propan-2-yl)phenyl)-4-((5-(4-hydroxy-piperidin-1-yl)pyridin-2-yl)amino)-1,6-naphthyridin-5(6H)-one], the IC50 is at most 100 nM.
Regarding `CC(O)(c1ccc(F)c(-c2cc(Nc3ccc(N4CCC(O)CC4)cn3)c3c(=O)[nH]ccc3n2)c1)C(F)(F)F` (single isomer, unassigned) [I-274, 2-(2-fluoro-5-(1,1,1-hydroxy-propan-2-yl)phenyl)-4-((5-(4-hydroxy-piperidin-1-y)pyridin-2-yl)amino)-1,6-naphthyridin-5(6H)-one], the IC50 was at most 100 nM.
The value for `O=C(Nc1ccc(-c2cc(Nc3ccc(N4CCC(O)CC4)cn3)c3c(=O)[nH]ccc3n2)c(F)c1)[C@H]1C[C@H]2CC[C@@H]1C2` (single isomer, unassigned) [I-275] was at most 100 nM; that for `O=C(Nc1ccc(-c2cc(Nc3ccc(N4CCC(O)CC4)cn3)c3c(=O)[nH]ccc3n2)c(F)c1)[C@@H]1C[C@H]2CC[C@@H]1C2` (single isomer, unassigned) [I-277] was at most 100 nM; that for `CCNC(=O)c1ccc(Nc2cc(-c3c(F)cccc3F)nc3cc[nH]c(=O)c23)cc1` [I-4, 4-[[2-(2,6-difluoro-phenyl)-5-oxo-6H-1,6-naphthyridin-4-yl]amino]-N-ethyl-benzamide] was at most 100 nM.
For `Cc1ccc(F)c(-c2cc(Nc3ccc(N4CCC(O)CC4)cn3)c3c(=O)[nH]ccc3n2)c1` [I-4I], the IC50 is above 1000 nM.
The value for `O=c1[nH]cc(Br)c2nc(-c3c(F)cccc3F)cc(Nc3ccc(N4CCC(O)CC4)cn3)c12` [I-5, 8-bromo-2-(2,6-difluorophenyl)-4-[[5-(4-hydroxy-1-piperidyl)-2-pyridyl]amino]-6H-1,6-naphthyridin-5-one] was 100 to 1000 nM; that for `O=c1[nH]ccc2nc(-c3c(F)cccc3F)cc(Nc3ccc(N4CCNCC4)cn3)c12` [I-6, 2-(2,6-difluoro-phenyl)-4-[(5-piperazin-1-yl-2-pyridyl)amino]-6H-1,6-naphthyridin-5-one] was at most 100 nM.
As to `CCNC(=O)c1ccc(Nc2nc(-c3c(F)cccc3F)cc3cc[nH]c(=O)c23)cc1` [I-7, 4-[[3-(2,6-difluorophenyl)-8-oxo-7H-2,7-naphthyridin-1-yl]amino]-N-ethyl-benzamide], the IC50 fell in the range of 100 to 1000 nM.
The value for `O=c1[nH]ccc2cc(-c3c(F)cccc3F)nc(Nc3ccc(N4CCC(O)CC4)cn3)c12` [I-8, 6-(2,6-difluoro-phenyl)-8-[[5-(4-hydroxy-1-piperidyl)-2-pyridyl]amino]-2H-2,7-naphthyridin-1-one] was 100 to 1000 nM.
As to `CC(C)c1cc(Nc2ccc(N3CCC(O)CC3)cn2)c2c(=O)[nH]ccc2n1` [I-9, 4-[[5-(4-hydroxy-1-piperidyl)-2-pyridyl]amino]-2-isopropyl-6H-1,6-naphthyridin-5-one], the half-maximal inhibitory concentration (IC50) was 100 to 1000 nM.
The value for `CCNC(=O)c1ccc(Nc2nc(C(C)C)nc3cc[nH]c(=O)c23)cc1` [I-10, N-ethyl-4-[(2-isopropyl-5-oxo-6H-pyrido[4,3-d]pyrimidin-4-yl)amino]benzamide] was 100 to 1000 nM.
For `O=c1[nH]cnc2nc(-c3c(F)cccc3F)cc(Nc3ccc(N4CCC(O)CC4)cn3)c12` [I-11, 7-(2,6-difluorophenyl)-5-[[5-(4-hydroxy-1-piperidyl)-2-pyridyl]amino]-3H-pyrido[2,3-d]pyrimidin-4-one] the value was 100 to 1000 nM.
The value for `CCNC(=O)c1ccc(Nc2nc(-c3c(F)cccc3F)cc3nc[nH]c(=O)c23)cc1` [I-12, 4-[[7-(2,6-difluorophenyl)-4-oxo-3H-pyrido[4,3-d]pyrimidin-5-yl]amino]-N-ethyl-benzamide] was 100 to 1000 nM; that for `O=c1[nH]cnc2cc(-c3c(F)cccc3F)nc(Nc3ccc(N4CCC(O)CC4)cn3)c12` [I-13, 7-(2,6-difluoro-phenyl)-5-[[5-(4-hydroxy-1-piperidyl)-2-pyridyl]amino]-3H-pyrido[4,3-d] pyrimidin-4-one] was 100 to 1000 nM; that for `CCNC(=O)c1ccc(Nc2cc(-c3c(F)cccc3F)nc3nc[nH]c(=O)c23)cc1` [I-14, 4-[[7-(2,6-difluoro-phenyl)-4-oxo-3H-pyrido[2,3-d]pyrimidin-5-yl]amino]-N-ethyl-benzamide] was at most 100 nM.
With `CC(O)c1c[nH]c(=O)c2c(Nc3ccc(N4CCC(O)CC4)cn3)cc(-c3c(F)cccc3F)nc12` (stereo not shown) [I-15, 2-(2,6-difluorophenyl)-8-(1-hydroxyethyl)-4-[[5-(4-hydroxy-1-piperidyl)-2-pyridyl]amino]-6H-1,6-naphthyridin-5-one], the IC50 fell in the range of 100 to 1000 nM.
With `CC(C)(O)c1c[nH]c(=O)c2c(Nc3ccc(N4CCC(O)CC4)cn3)cc(-c3c(F)cccc3F)nc12` [I-16, 2-(2,6-difluorophenyl)-8-(1-hydroxy-1-methyl-ethyl)-4-[[5-(4-hydroxy-1-piperidyl)-2-pyridyl]amino]-6H-1,6-naphthyridin-5-one], the IC50 was in the range of 100 to 1000 nM.
The value for `O=c1[nH]ccc2nc(C3CC3)cc(Nc3ccc(N4CCC(O)CC4)cn3)c12` [I-17, 2-cyclopropyl-4-[[5-(4-hydroxy-1-piperidyl)-2-pyridyl]amino]-6H-1,6-naphthyridin-5-one] was 100 to 1000 nM; that for `CS(=O)(=O)c1ccc(Nc2cc(-c3c(F)cccc3F)nc3cc[nH]c(=O)c23)nc1` [I-18, 2-(2,6-difluoro-phenyl)-4-[(5-methyl-sulfonyl-2-pyridyl)amino]-6H-1,6-naphthyridin-5-one] was above 1000 nM; that for `O=c1[nH]ccc2nc(C3CCCCC3)cc(Nc3ccc(N4CCC(O)CC4)cn3)c12` [I-19, 2-cyclohexyl-4-[[5-(4-hydroxy-1-piperidyl)-2-pyridyl]amino]-6H-1,6-naphthyridin-5-one] was 100 to 1000 nM.
For `O=c1[nH]ccc2nc(C3CCCC3)cc(Nc3ccc(N4CCC(O)CC4)cn3)c12` [I-20, 2-cyclopentyl-4-[[5-(4-hydroxy-1-piperidyl)-2-pyridyl]amino]-6H-1,6-naphthyridin-5-one] the value was 100 to 1000 nM; for `CC(C)c1cc(Nc2ccc(N3CCNCC3)cn2)c2c(=O)[nH]ccc2n1` [I-21, 2-isopropyl-4-[(5-piperazin-1-yl-2-pyridyl)amino]-6H-1,6-naphthyridin-5-one], 100 to 1000 nM; for `CC(C)c1cc(Nc2ccc(N3CCOCC3)cn2)c2c(=O)[nH]ccc2n1` [I-22, 2-isopropyl-4-[(5-morpholino-2-pyridyl)amino]-6H-1,6-naphthyridin-5-one], at most 100 nM.
For `CC(C)c1cc(Nc2ccc(S(C)(=O)=O)cn2)c2c(=O)[nH]ccc2n1` [I-23, 2-isopropyl-4-[(5-methyl-sulfonyl-2-pyridyl)amino]-6H-1,6-naphthyridin-5-one] the value was 100 to 1000 nM.
As for `O=c1[nH]ccc2nc(-c3c(F)cccc3F)cc(Nc3ccc(S(=O)(=O)N4CCCCC4)cn3)c12` [I-24, 2-(2,6-difluoro-phenyl)-4-[[5-(1-piperidyl-sulfonyl)-2-pyridyl]amino]-6H-1,6-naphthyridin-5-one], the IC50 lay within 100 to 1000 nM.
For `Cc1c[nH]c(=O)c2c(Nc3ccc(N4CCC(O)CC4)cn3)cc(-c3c(F)cccc3F)nc12` [I-25, 2-(2,6-difluorophenyl)-4-[[5-(4-hydroxy-1-piperidyl)-2-pyridyl]amino]-8-methyl-6H-1,6-naphthyridin-5-one] the value was 100 to 1000 nM.
For `O=c1[nH]ccc2nc(C3CCC3)cc(Nc3ccc(N4CCC(O)CC4)cn3)c12` [I-26, 2-cyclobutyl-4-[[5-(4-hydroxy-1-piperidyl)-2-pyridyl]amino]-6H-1,6-naphthyridin-5-one], the IC50 was above 1000 nM.
For `CC(C)Cc1cc(Nc2ccc(N3CCC(O)CC3)cn2)c2c(=O)[nH]ccc2n1` [I-28, 4-[[5-(4-hydroxy-1-piperidyl)-2-pyridyl]amino]-2-isobutyl-6H-1,6-naphthyridin-5-one] the value was 100 to 1000 nM.
The value for `CCNC(=O)c1ccc(Nc2cc(C(C)C)nc3cc[nH]c(=O)c23)cc1` [I-29, N-ethyl-4-[(2-isopropyl-5-oxo-6H-1,6-naphthyridin-4-yl)amino] benzamide] was 100 to 1000 nM.
